From patent publication US8889677B2, “Substituted triazoles useful as mGlu5 receptor modulators” (Boehringer Ingellheim International GmbH, priority 2012, dated 2014)

Biological target: T1, human recombinant mGluR5 (Homo sapiens, UniProt P41594)
T1 construct: expressed in transfected cells; host or cells: HEK 293 cell line cultured with tetracycline, hygromycin and geneticin; tetracycline removed 3-7 days before the assay
Assay: positive modulation of mGluR5, calcium based FLIPR assay in HEK 293 cells
Conditions: HEK 293 cell line expressing human recombinant mGluR5; EC50 of the modulation of the glutamate response (glutamate approx. 5% basal stimulation); peak height of Ca release fluorescence signal
Protocol: The positive modulation of mGluR5 is measured in a HEK 293 cell line expressing human recombinant mGluR5 and is detected with calcium based FLIPR assay. The cells are cultured with DMEM supplemented with 10% FCS, 2 μg/mL tetracycline, 100 μg/mL hygromycin and 500 μg/mL gneticin. The cell culture media is exchanged for tetracycline-free cell culture media 3-7 days before the assay. One day before the assay the cell culture medium is exchanged to DMEM without glutamine and phenol red and supplemented with 10% FCS, 100 μg/mL hygromycin and 500 μg/mL geneticin. On the assay day, the medium of the subconfluent cultures is removed and the cells are detached by addition of 2.5 ml EDTA (0.02%) per 175 cm2 culture flask for 1 minute. The cells are resuspend in Ringer solution (140 mM NaCl, 5 mM KCl, 2.5 mM CaCl2, 1.5 mM MgCl2, 5 mM Glucose, 10 mM Hepes; adjusted to pH 7.4 with NaOH), pooled and Ringer solution added to adjust the volume to 50 mL. The cell suspension is centrifuged for […] at 1500 U/min (425 g). The supernatant is removed and the cells washed a second time with 50 ml fresh Ringer solution and centrifuged again as before. The supernatant is again removed and the pellet resuspended in Ringer solution to 1,000,000 cells/ml (1×10^6 cells/mL). The cells are plated onto BD BioCoat Poly-D-Lysine 384 well plates (20.000 cells/well; 20 μl/well). The lid covered plates are then incubated until use at 37° C./10% CO2. For dye loading, 20 μl of Calcium-4 assay kit solution (prepared according to the manufacturer's description in Ringer solution) are added to the cells and the plates are incubated for 80 min 37° C. and then 10 min at room temperature.
Controls, Compound Dilution and Assay Execution:
Each assay plate contained wells with “high” and “low” controls:
Low controls 1% DMSO/ringer solution+basal glutamate activation (defined as 100% CTL).
High controls 10 μM CDPPB+basal glutamate activation (defined as 200% CTL).
Test compounds are dissolved and diluted in DMSO to 100-fold the desired concentrations. In a second step, the compounds are diluted in Ringer solution such that the compounds are 4-fold more concentrated than the desired final assay concentration. The final DMSO concentration was 1%.
20 μl of each compound solution are then transferred to the assay plate and the Ca2+ kinetic is measured to determine any intrinsic compound activity. After 5 min incubation in the FLIPR device, the second stimulation with 20 μl of glutamate in Ringer solution (glutamate concentration adjusted to approximately 5% basal stimulation of the maximal possible glutamate effect) is added and the kinetic Ca2+ response of the wells was measured for the modulation effect.
The peak height of the Ca release related fluorescence signal (9-66) is used for the EC50. The EC50 of the modulation is calculated over a nonlinear regression with GraphPad Prism (Table 1).

T1 sequence (P41594 21-1212): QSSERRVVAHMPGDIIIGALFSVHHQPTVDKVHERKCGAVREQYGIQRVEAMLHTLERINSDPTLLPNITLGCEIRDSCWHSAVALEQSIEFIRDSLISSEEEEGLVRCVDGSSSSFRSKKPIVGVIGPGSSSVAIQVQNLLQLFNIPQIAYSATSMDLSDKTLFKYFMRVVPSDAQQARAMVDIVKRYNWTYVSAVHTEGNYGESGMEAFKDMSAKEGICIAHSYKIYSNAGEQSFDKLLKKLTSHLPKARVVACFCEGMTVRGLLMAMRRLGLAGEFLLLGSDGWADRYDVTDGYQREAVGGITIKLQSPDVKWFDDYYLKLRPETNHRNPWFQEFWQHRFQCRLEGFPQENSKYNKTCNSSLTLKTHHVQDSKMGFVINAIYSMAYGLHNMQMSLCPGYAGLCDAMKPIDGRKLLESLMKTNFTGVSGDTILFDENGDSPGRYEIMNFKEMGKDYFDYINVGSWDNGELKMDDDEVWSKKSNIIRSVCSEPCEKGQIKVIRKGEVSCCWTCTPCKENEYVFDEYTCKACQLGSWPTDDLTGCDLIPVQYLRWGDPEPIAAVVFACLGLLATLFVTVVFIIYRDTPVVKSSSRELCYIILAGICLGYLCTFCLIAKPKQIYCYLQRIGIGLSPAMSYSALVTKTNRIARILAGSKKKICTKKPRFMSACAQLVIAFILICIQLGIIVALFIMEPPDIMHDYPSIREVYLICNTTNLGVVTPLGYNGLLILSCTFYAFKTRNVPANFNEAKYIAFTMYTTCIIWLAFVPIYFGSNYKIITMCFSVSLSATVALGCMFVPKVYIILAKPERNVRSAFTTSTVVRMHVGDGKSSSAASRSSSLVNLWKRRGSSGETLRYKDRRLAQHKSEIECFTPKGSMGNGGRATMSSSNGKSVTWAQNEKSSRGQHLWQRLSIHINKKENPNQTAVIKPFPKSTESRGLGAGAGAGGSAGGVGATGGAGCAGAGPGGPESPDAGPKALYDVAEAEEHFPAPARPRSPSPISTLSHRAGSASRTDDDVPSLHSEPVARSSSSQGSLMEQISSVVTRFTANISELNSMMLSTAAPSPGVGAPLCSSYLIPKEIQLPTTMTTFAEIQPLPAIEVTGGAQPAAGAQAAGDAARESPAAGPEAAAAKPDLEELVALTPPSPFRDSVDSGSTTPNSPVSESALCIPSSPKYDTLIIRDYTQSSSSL

| EC50 [µM] | SMILES |
| --- | --- |
| 0.44 | COc1nccc(N2CCN(C(=O)Cn3nc(-c4ccc(F)cc4)nc3-c3ccc(F)cc3)CC2)n1 [Example 07.03.19.] |
| 0.467 | O=C(Cn1nc(-c2ccc(F)cc2)nc1-c1ccc(F)cc1)N1CCN(c2ccc(Br)cn2)CC1 [Example 07.03.20.] |
| 0.476 | CN(C)c1nccc(N2CCN(C(=O)Cn3nc(-c4ccc(F)cc4)nc3-c3ccc(F)cc3)CC2)n1 [Example 07.03.22.] |
| 0.177 | CCc1cc(N2CCN(C(=O)Cn3nc(-c4ccc(F)cc4)nc3-c3ccc(F)cc3)CC2)ncn1 [Example 07.03.26.] |
| 1.21 | CCc1cc(N2CCN(C(=O)Cn3nc(-c4ccc(F)cc4)nc3-c3ccc(F)cc3)CC2)nc(Cl)n1 [Example 07.03.27.] |
| 0.319 | Nc1cc(N2CCN(C(=O)Cn3nc(-c4ccc(F)cc4)nc3-c3ccc(F)cc3)CC2)ncn1 [Example 07.03.28.] |
| 2 | COc1ccc(Cl)cc1N1CCN(C(=O)Cn2nc(-c3ccc(F)cc3)nc2-c2ccc(F)cc2)CC1 [Example 07.04.002.] |
| 0.259 | O=C(Cn1nc(-c2ccc(F)cc2)nc1-c1ccc(F)cc1)N1CCN(c2ccncn2)CC1 [Example 07.04.003.] |
| 0.6 | O=C(Cn1nc(-c2ccc(F)cc2)nc1-c1ccc(F)cc1)N1CCN(c2cccnc2)CC1 [Example 07.04.004.] |
| 0.4 | O=C(Cn1nc(-c2ccc(F)cc2)nc1-c1ccc(F)cc1)N1CCN(c2cc3ccccc3cn2)CC1 [Example 07.04.005.] |
| 0.117 | O=C(Cn1nc(-c2ccc(F)cc2)nc1-c1ccc(F)cc1)N1CCN(c2cnccn2)CC1 [Example 07.04.008.] |
| 0.166 | O=C(Cn1nc(-c2ccc(F)cc2)nc1-c1ccc(F)cc1)N1CCN(c2ccc(Cl)nn2)CC1 [Example 07.04.009.] |
| 1.2 | O=C(Cn1nc(-c2ccc(F)cc2)nc1-c1ccc(F)cc1)N1CCN(c2ccccc2O)CC1 [Example 07.04.010.] |
| 1.57 | N#Cc1ccc(N2CCN(C(=O)Cn3nc(-c4ccc(F)cc4)nc3-c3ccc(F)cc3)CC2)nc1 [Example 07.04.11.] |
| 0.176 | O=C(Cn1nc(-c2ccc(F)cc2)nc1-c1ccc(F)cc1)N1CCN(c2ccc(Cl)cn2)CC1 [Example 07.04.12.] |
| 1.21 | O=C(Cn1nc(-c2ccc(F)cc2)nc1-c1ccc(F)cc1)N1CCN(c2ccccc2F)CC1 [Example 07.04.13.] |
| 0.364 | O=C(Cn1nc(-c2ccc(F)cc2)nc1-c1ccc(F)cc1)N1CCN(c2cc(Cl)ccn2)CC1 [Example 07.04.015.] |
| 0.062 | COc1cc(N2CCN(C(=O)Cn3nc(-c4ccc(F)cc4)nc3-c3ccc(F)cc3)CC2)ncn1 [Example 07.04.016.] |
| 0.421 | COc1cnnc(N2CCN(C(=O)Cn3nc(-c4ccc(F)cc4)nc3-c3ccc(F)cc3)CC2)c1 [Example 07.04.017.] |

The remaining lines, values behind:

| SMILES | EC50 [µM] |
| --- | --- |
| O=C(Cn1nc(-c2ccc(F)cc2)nc1-c1ccc(F)cc1)N1CCN(c2nccc(C(F)(F)F)n2)CC1 [Example 07.03.21.] | 0.278 |
| CN(C)c1cc(N2CCN(C(=O)Cn3nc(-c4ccc(F)cc4)nc3-c3ccc(F)cc3)CC2)ccn1 [Example 07.03.23.] | 1.01 |
| COc1cc(N2CCN(C(=O)Cn3nc(-c4ccc(F)cc4)nc3-c3ccc(F)cc3)CC2)ccn1 [Example 07.03.24.] | 0.254 |
| COc1cnc(N2CCN(C(=O)Cn3nc(-c4ccc(F)cc4)nc3-c3ccc(F)cc3)CC2)nc1 [Example 07.04.001., 2-(3,5-Bis-(4-fluoro-phenyl)-(1,2,4)triazol-1-yl)-1-(4-(5-methoxy-pyrimidin-2-yl)-piperazin-1-yl)-ethanone] | 0.025 |
| O=C(Cn1nc(-c2ccc(F)cc2)nc1-c1ccc(F)cc1)N1CCN(c2nccc3ccccc23)CC1 [Example 07.04.006.] | 0.899 |
| N#Cc1ccccc1N1CCN(C(=O)Cn2nc(-c3ccc(F)cc3)nc2-c2ccc(F)cc2)CC1 [Example 07.04.007.] | 1.35 |
| COc1cccc(N2CCN(C(=O)Cn3nc(-c4ccc(F)cc4)nc3-c3ccc(F)cc3)CC2)c1 [Example 07.04.014.] | 0.467 |
| O=C(Cn1nc(-c2ccccc2)nc1-c1ccccc1)N1CCN(c2ncccn2)CC1 [Example 07.04.018.] | 0.2 |
| COc1cc(N2CCN(C(=O)Cn3nc(-c4ccccc4)nc3-c3ccccc3)CC2)ncn1 [Example 07.04.019.] | 1.09 |
| COc1ccc(-c2nc(C3CCCCC3)n(CC(=O)N3CCN(c4ncccn4)CC3)n2)c(F)c1 [Example 07.04.020.] | 0.388 |
| COc1ccc(-c2nc(C3CCCCC3)n(CC(=O)N3CCN(c4cc(C)ccn4)CC3)n2)c(F)c1 [Example 07.04.021.] | 0.647 |
| COc1ccc(-c2nc(C3CCCCC3)n(CC(=O)N3CCN(c4ccccn4)CC3)n2)c(F)c1 [Example 07.04.022.] | 1.04 |
| O=C(Cn1nc(-c2cccc(F)c2)nc1-c1cccc(F)c1)N1CCN(c2ncccn2)CC1 [Example 07.04.023.] | 0.37 |
| Cc1ccnc(N2CCN(C(=O)Cn3nc(-c4cccc(F)c4)nc3-c3cccc(F)c3)CC2)c1 [Example 07.04.024.] | 0.945 |
| COc1cccc(-c2nc(-c3ccc(F)cc3)nn2CC(=O)N2CCN(c3cc(C)ccn3)CC2)c1 [Example 07.04.025.] | 0.868 |
| COc1cccc(-c2nc(-c3ccc(F)cc3)nn2CC(=O)N2CCN(c3ncccn3)CC2)c1 [Example 07.04.026.] | 0.236 |
| COc1cccc(-c2nc(-c3ccc(F)cc3)n(CC(=O)N3CCN(c4cc(C)ccn4)CC3)n2)c1 [Example 07.04.027.] | 0.038 |
| COc1cccc(-c2nc(-c3ccc(F)cc3)n(CC(=O)N3CCN(c4ncccn4)CC3)n2)c1 [Example 07.04.028.] | 0.03 |
| O=C(Cn1nc(-c2ccc(F)cc2)nc1C1CCCCC1)N1CCN(c2ccccn2)CC1 [Example 07.04.029.] | 1.56 |
| Cc1ccnc(N2CCN(C(=O)Cn3nc(-c4ccc(F)cc4)nc3C3CCCCC3)CC2)c1 [Example 07.04.030.] | 1.42 |
| O=C(Cn1nc(-c2ccc(F)cc2)nc1C1CCCCC1)N1CCN(c2ncccn2)CC1 [Example 07.04.031.] | 0.661 |
| COc1ccc(-c2nc(-c3ccc(F)cc3)n(CC(=O)N3CCN(c4cc(C)ccn4)CC3)n2)cc1 [Example 07.04.032.] | 0.039 |
| COc1ccc(-c2nc(-c3ccc(F)cc3)n(CC(=O)N3CCN(c4ncccn4)CC3)n2)cc1 [Example 07.04.033.] | 0.037 |
| COc1ccc(-c2nc(-c3ccc(F)cc3)n(CC(=O)N3CCN(c4cc(OC)ncn4)CC3)n2)cc1 [Example 07.04.034.] | 0.052 |
| COc1ccc(-c2nc(-c3ccc(F)cc3)n(CC(=O)N3CCN(c4ccccn4)CC3)n2)cc1 [Example 07.04.035.] | 0.04 |
| COc1ccc(-c2nc(-c3ccc(F)cc3)n(CC(=O)N3CCN(c4ncc(Br)cn4)CC3)n2)cc1 [Example 07.04.036.] | 0.032 |
| COc1ccc(-c2nc(-c3ccc(F)cc3)n(CC(=O)N3CCN(c4cccnn4)CC3)n2)cc1 [Example 07.04.037.] | 0.114 |
| COc1ccc(-c2nc(-c3ccc(F)cc3)n(CC(=O)N3CCN(c4ncc(Cl)cn4)CC3)n2)cc1 [Example 07.04.038.] | 0.023 |
| COc1ccc(-c2nc(-c3ccc(F)cc3)n(CC(=O)N3CCN(c4cc(OC)ccn4)CC3)n2)cc1 [Example 07.04.039.] | 0.03 |
| COc1ccc(-c2nc(-c3ccc(F)cc3)nn2CC(=O)N2CCN(c3ncccn3)CC2)cc1 [Example 07.04.040.] | 0.033 |
